Laboratory results taken from the supplement of paper PMC10307832.

Experiments:
Assay in all cases: relative viability (nuclei count vs DMSO), 5 days (fraction); higher = more cells survive
NCI-H2342 = tested on: NCI-H2342
Method in brief: (§1)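 Lung cancer cell lines in 1536-well plates got either a single drug or a fixed anchor-drug dose together with five library-drug doses (not always all listed) in √10 steps, by pin tool, on the day after seeding. Nuclei were counted after 5 days, and relative viability is the treated-to-vehicle ratio of nuclei counts. Values are medians of duplicate plates.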

LCLC-103H = tested on: LCLC-103H
Method in brief: as §1

LXF-289 = tested on: LXF-289
Method in brief: as §1

COR-L23 = tested on: COR-L23
Method in brief: as §1

NCI-H2085 = tested on: NCI-H2085
Method in brief: as §1

SK-MES-1 = tested on: SK-MES-1
Method in brief: as §1

NCI-H2023 = tested on: NCI-H2023
Method in brief: as §1

RERF-LC-KJ = tested on: RERF-LC-KJ
Method in brief: as §1

NCI-H3122 = tested on: NCI-H3122
Method in brief: as §1

NCI-H2170 = tested on: NCI-H2170
Method in brief: as §1

NCI-H1395 = tested on: NCI-H1395
Method in brief: as §1

COCC1(CO)C(=O)C2CCN1CC2 (centres undefined) [PRIMA-1MET] + Cc1nc(Nc2ncc(C(=O)Nc3c(C)cccc3Cl)s2)cc(N2CCN(CCO)CC2)n1 [Dasatinib] (partner 0.075 µM)
relative viability (NCI-H2342; first compound 0.6325 µM): 0.305
relative viability (NCI-H2342; first compound 2 µM): 0.347
relative viability (NCI-H2342; first compound 6.325 µM): 0.295
relative viability (NCI-H2342; first compound 20 µM): 0.333
relative viability (LCLC-103H; first compound 0.2 µM): 0.566
relative viability (LCLC-103H; first compound 0.6325 µM): 0.422
relative viability (LCLC-103H; first compound 2 µM): 0.431
relative viability (LCLC-103H; first compound 6.325 µM): 0.447
relative viability (LCLC-103H; first compound 20 µM): 0.342
relative viability (LXF-289; first compound 0.2 µM): 0.277
relative viability (LXF-289; first compound 0.6325 µM): 0.179
relative viability (LXF-289; first compound 2 µM): 0.199
relative viability (LXF-289; first compound 6.325 µM): 0.232
relative viability (LXF-289; first compound 20 µM): 0.173
relative viability (COR-L23; first compound 0.2 µM): 0.508
relative viability (COR-L23; first compound 0.6325 µM): 0.478
relative viability (COR-L23; first compound 2 µM): 0.595
relative viability (COR-L23; first compound 6.325 µM): 0.432
relative viability (COR-L23; first compound 20 µM): 0.0161
relative viability (NCI-H2085; first compound 0.2 µM): 0.248
relative viability (NCI-H2085; first compound 0.6325 µM): 0.23
relative viability (NCI-H2085; first compound 2 µM): 0.249
relative viability (NCI-H2085; first compound 6.325 µM): 0.248
relative viability (NCI-H2085; first compound 20 µM): 0.192
relative viability (SK-MES-1; first compound 0.2 µM): 0.303
relative viability (SK-MES-1; first compound 0.6325 µM): 0.475
relative viability (SK-MES-1; first compound 2 µM): 0.447
relative viability (SK-MES-1; first compound 6.325 µM): 0.286
relative viability (SK-MES-1; first compound 20 µM): 0.242
relative viability (NCI-H2023; first compound 0.2 µM): 0.601
relative viability (NCI-H2023; first compound 0.6325 µM): 0.586
relative viability (NCI-H2023; first compound 2 µM): 0.567
relative viability (NCI-H2023; first compound 6.325 µM): 0.57
relative viability (NCI-H2023; first compound 20 µM): 0.229
relative viability (RERF-LC-KJ; first compound 0.2 µM): 0.759
relative viability (RERF-LC-KJ; first compound 0.6325 µM): 0.833
relative viability (RERF-LC-KJ; first compound 2 µM): 0.931
relative viability (RERF-LC-KJ; first compound 6.325 µM): 0.895
relative viability (RERF-LC-KJ; first compound 20 µM): 0.673
relative viability (NCI-H3122; first compound 0.2 µM): 0.382
relative viability (NCI-H3122; first compound 0.6325 µM): 0.806
relative viability (NCI-H3122; first compound 2 µM): 0.439
relative viability (NCI-H3122; first compound 6.325 µM): 0.433
relative viability (NCI-H3122; first compound 20 µM): 0.856
relative viability (NCI-H2170; first compound 0.2 µM): 0.554
relative viability (NCI-H2170; first compound 0.6325 µM): 0.46
relative viability (NCI-H2170; first compound 2 µM): 0.497
relative viability (NCI-H2170; first compound 6.325 µM): 0.604
relative viability (NCI-H2170; first compound 20 µM): 0.586
relative viability (NCI-H1395; first compound 0.2 µM): 0.409
relative viability (NCI-H1395; first compound 0.6325 µM): 0.458
relative viability (NCI-H1395; first compound 2 µM): 0.493
relative viability (NCI-H1395; first compound 6.325 µM): 0.38
relative viability (NCI-H1395; first compound 20 µM): 0.396
